Data on 9 compounds can be found in paper PMC5738580, “Design, Synthesis, and Cytotoxicity Evaluation of Novel Griseofulvin Analogues with Improved Water Solubility” (International Journal of Medicinal Chemistry, 2017).

The subject of data set [1] is MCF-7 cells. The data set is described as follows: SRB cytotoxicity assay, MCF-7. The format is cell-based. The conditions noted are these: Homo sapiens, MCF7, read-out: IC50 against MCF-7. The protocol: (§1) Breast carcinoma MCF-7 and colorectal cancer HCT116 cell lines were used in this study. Cancer cell lines were obtained frozen in liquid nitrogen (−180°C) from the American Type Culture Collection (ATCC). The tumor cell line was maintained by serial subculturing in RPMI 1640 media containing 10% […] at the National Cancer Institute, Cairo, Egypt.
(§2) Cytotoxicity assay was carried out according to the reported literature, where the sensitivity of the MCF-7 and HCT116 cell lines to the tested compounds and their combination was determined by the SRB assay. In brief, cells were seeded at a density of 3 × 10^3 cells/well in 96-well microtiter plates. Cells were left to attach for 24 hours before incubation with drugs. Next, they were treated with different concentrations of the tested compounds (10, 20, 30, 40, 50, and 100 μM).
(§3) Control cells containing 200 μl/well of DMSO (0.1% v/v) were used similarly. At the end of incubation, cells were fixed with 20% trichloroacetic acid (TCA), stained with 0.4% Sulforhodamine B (SRB), and rinsed with 1% acetic acid. The bound protein stain was solubilized with Tris base (10 mM, pH 10.5) and the optical density (OD) of each well was measured spectrophotometrically at 570 nm using ELISA microplate reader (TECAN, Sunrise^TM, Germany). The fraction of cell survival was calculated as follows.
(§4) Survival fraction = OD treated/OD control. […] Each experiment was repeated 3 times.

In data set [2] the test system is HCT116 cells. Description: SRB cytotoxicity assay, HCT116. To be noted: for IC50: Homo sapiens, HCT-116, read-out: IC50 against HCT116. The format is cell-based, human. As for the experimental part:
as §1, §2, §3, §4
On the technique in general: The SRB assay estimates cell density from bound dye.

Data set [3] in a line: Equilibrium solubility in buffer solutions (UV). In kind it is physicochemical. To be noted: thermodynamic from solid, 37 °C, read-out: Mean solubility ± SD. As for the experimental part:
UV measurements were performed on single beam spectrophotometer (Jenway, model 6305, UK). Equilibrium solubility was performed through using digital precise shaking water bath (DAIHAN Scientific Co., model WSB-45, Republic of Korea).
A powdered sample (20 mg), of each of the tested compounds [3, 5–10, and griseofulvin 1], was accurately weighed and dissolved in 100 ml of methanol to prepare 200 μg/ml stock solution. Compound solutions (20 μg/ml) in the investigated media (buffer solutions of pH 1.2 and 6.8) were prepared from stock solution after appropriate dilution. The prepared solutions were scanned in the UV-Vis region (200–800 nm) to determine the wavelength of maximum absorption (λmax) in each medium.
Solutions containing different concentrations of the investigated compound were prepared from stock solution after appropriate dilution with the investigated buffer solutions. The UV absorbance of the prepared sample solutions was measured at λmax of the investigated compound using the investigated buffer solution as a reference solution (blank). The determined absorbance values were plotted versus the corresponding concentrations to construct the standard calibration curves.
Equilibrium solubility of each of the tested compounds was determined by placing an excess amount of the compound in stoppered glass volumetric flask containing 10 ml of the investigated buffer solution. The solutions were shaken at a rate of (40 ± 2) stroke/minute in a thermostatically controlled water bath at 37 ± 0.5°C for 24 hours to ensure equilibrium. Samples of 2 ml were withdrawn from each test solution, filtered immediately, and assayed spectrophotometrically at the determined λmax of the investigated compound.

The test system of data set [4] is centrosomal clustering. On the set-up: method as in PMID 22191585, PMID 19402668. The conditions noted are these: cited from earlier work.
Data set [5] relates to MCF-7 cells. The data set is described as follows: Apoptosis, Annexin V-FITC/PI flow cytometry. The format is cell-based, human. To be noted: MCF-7, 21.5 μM, 48 hrs. The protocol:
In order to study the effect of compound 9 on apoptosis, MCF-7 cells were treated with compound 9 (21.5 μM) for 48 hrs and harvested for fluorescence microscopic and flow cytometric analysis of Annexin V-FITC/propidium iodide (PI) staining. […] The percentage of apoptotic cells was 2.65% in control untreated MCF-7 cells and 31.75% after treatment with compound 9.
In brief, untreated and treated MCF-7 cells (21.5 μM of 9) were harvested and resuspended in calcium buffer at a concentration of 1 × 10^6 cells/ml. Annexin V-FITC (10 μl) was added to 100 μl of cells. The tubes were incubated for 20 min in the dark. The cells were then washed with calcium buffer and propidium iodide (10 μl) was added to each tube and incubated for at least 10 min on ice. Samples were analyzed by FACScan flow cytometer (Becton-Dickinson, San Jose, CA, USA) using CellQuest software (Becton-Dickinson, San Jose, CA).

Data set [6] has as its system MCF-7 cells. Description: Combination of compound 9 with tamoxifen (SRB, combination index). The format is cell-based, human. As for the experimental part:
(§5) Estrogen-dependent breast cancer represents 70% of all types of breast cancer. […] Combination therapy is used in order to prevent resistance or recurrence. […] Similar study was performed for evaluation of combination effect of compound 9 with 5-fluorouracil on HCT116 cells proliferation (Figure 1).
as §2
(§6) CI was employed to determine whether the compounds interacted synergistically, additively, or antagonistically. […] If “CI” is less than 1, the effect of combination is synergistic, whereas if CI = 1 or >1, the effect is additive or antagonistic, respectively.

Data set [7] concerns HCT116 cells. Description: Combination of compound 9 with 5-fluorouracil (SRB, combination index). The format is cell-based, human. As for the experimental part: as §5, §2, §6
The mark [8] stands for this setting: buffer solution pH 1.2, simulated gastric fluid, pH 1.2 buffer solution.
Where [9] appears, read: buffer solution pH 6.8, aqueous buffer, pH 6.8 buffer solution.

Values after ≈ are worked out from the molar mass of the structure shown. Read-outs that look alike come from different tables or passages of the source. Bounds are passed on as bounds.

As a reminder, the IC50 is the concentration needed to halve the response being measured. In general, solubility refers to how much of the substance goes into solution per volume.

Consider `COc1cc(OC)c2c(c1Cl)O[C@]1(C2=O)C(OCc2ccccc2)=CC(=NOCC(=O)O)C[C@H]1C` (mixture of isomers) [Compound 5, 2-(((E/Z)-[(2S,6′R)2′-Benzyloxy-7-chloro-4,6-dimethoxy-6′-methyl-3-oxo-3H-spiro[benzofuran-2,1′-cyclohex[2′]en]-4′-ylidene]amino)oxy) Acetic Acid], for which the IC50 in data set [1] is 20.7 µM; in data set [2], more than 100 µM. Further, the solubility at 24 h in data set [3] (setting [8]) is 14.3 ± 0.42 µg/mL; in data set [3] (setting [9]), 27.94 ± 0.27 µg/mL.
As to `COC1=CC(=NNC(N)=O)C[C@@H](C)[C@]12Oc1c(Cl)c(OC)cc(OC)c1C2=O` (mixture of isomers) [Compound 6, (E/Z)-2-((2S,6′R)-7-Chloro-2′,4,6-trimethoxy-6′-methyl-3-oxo-3H-spiro[benzofuran-2,1′-cyclohex[2′]en]-4′-ylidene)hydrazine-1-carboxamide], the IC50 stood at 55.9 µM in data set [1] and 87.8 µM in data set [2]. In addition, the solubility at 24 h is 14.86 ± 0.12 µg/mL in data set [3] (setting [8]) and 14.5 ± 0.39 µg/mL in data set [3] (setting [9]).
Consider `COC1=CC(=NNC(=O)c2ccncc2)C[C@@H](C)[C@]12Oc1c(Cl)c(OC)cc(OC)c1C2=O` (mixture of isomers) [Compound 8, (E/Z)-N′-((2S,6′R)-7-Chloro-2′,4,6-trimethoxy-6′-methyl-3-oxo-3H-spiro[benzofuran-2,1′-cyclohex[2′]en]-4′-ylidene)isonicotinic Acid Hydrazide], for which the values for the half-inhibitory concentration (IC50) in data set [1] and in data set [2] were 25.3 µM and 39.8 µM, respectively. Moreover, the solubility at 24 h was 29.1 ± 0.72 µg/mL in data set [3] (setting [8]) and 12.5 ± 0.54 µg/mL in data set [3] (setting [9]).
Turning to `O=c1[nH]cc(F)c(=O)[nH]1` [5-Fluorouracil, reference compound], the IC50 in data set [2] was found to be 19.5 µM.
Take `COC1=CC(=O)C[C@@H](C)[C@]12Oc1c(Cl)c(OC)cc(OC)c1C2=O` [Compound 1, Griseofulvin]: the IC50 in data set [1] came to 69 µM; in data set [2], 35.5 µM. Further, the solubility at 24 h in data set [3] (setting [8]) is 12.3 ± 0.29 µg/mL (≈ 34.9 µM); in data set [3] (setting [9]), 12.4 ± 0.26 µg/mL (≈ 35.1 µM).
For the compound `COc1cc(OC)c2c(c1Cl)O[C@]1(C2=O)C(OCc2ccccc2)=CC(=O)C[C@H]1C` [Compound 3, (2S,6′R)-2′-Benzyloxy-7-chloro-4,6-dimethoxy-6′-methyl-3H-spiro[benzofuran-2,1′-cyclohex[2′]en]-3,4′-dione, reference compound], the “increase in activity as a centrosome clustering inhibitor compared to 1” value in data set [4] was 25 fold. The figures for the IC50 in data set [1] and in data set [2] were 32.8 µM and 35.8 µM, respectively. The solubility at 24 h in data set [3] (setting [8]) was 11.1 ± 0.37 µg/mL (≈ 26 µM); in data set [3] (setting [9]), 11.1 ± 0.82 µg/mL (≈ 25.9 µM).
On to `COC1=CC(=NNC(=N)N)C[C@@H](C)[C@]12Oc1c(Cl)c(OC)cc(OC)c1C2=O` [Compound 7, 2-((2S,6′R)-7-Chloro-2′,4,6-trimethoxy-6′-methyl-3-oxo-3H-spiro[benzo-furan-2,1′-cyclohex[2′]en]-4′-ylidene)hydrazine-1-carboximidamide], for which the IC50 in data set [1] is 54.5 µM; in data set [2] it was 85.6 µM.
Consider `COc1cc(OC)c2c(c1Cl)OC1(C2=O)C(OCc2ccccc2)=CC(=NNC(N)=O)CC1C` [Compound 9, 2-((2S,6′R)-2′-Benzyloxy-7-chloro-4,6-dimethoxy-6′-methyl-3-oxo-3H-spiro[benzofuran-2,1′-cyclohex[2′]en]-4′-ylidene)hydrazine-1-carboxamide], for which, in data set [5], the “percentage of apoptotic cells” value stood at 31.75%. Further, the “combination index (CI)” value was found to be 0.25 ± 0.03 in data set [6] (half of IC50 of compound 9 + quarter of IC50 of tamoxifen), 0.17 ± 0.06 in data set [6] (quarter of IC50 of compound 9 + half of IC50 of tamoxifen), 0.37 ± 0.07 in data set [7] (half of IC50 of compound 9 + quarter of IC50 of 5-fluorouracil) and 0.2 ± 0.06 in data set [7] (quarter of IC50 of compound 9 + half of IC50 of 5-fluorouracil). The IC50 in data set [1] was found to be 21.5 µM; in data set [2], 10.5 µM. Also, in data set [2], the “increase in activity over 5-fluorouracil against HCT116” value is on record as 2 fold. Besides, the solubility at 24 h in data set [3] (setting [8]) is 14 ± 0.31 µg/mL (≈ 28.7 µM); in data set [3] (setting [9]), 13.78 ± 0.07 µg/mL (≈ 28.4 µM).
`COc1cc(OC)c2c(c1Cl)OC1(C2=O)C(OCc2ccccc2)=CC(=NNC(=N)N)CC1C` [Compound 10, 2-((2S,6′R)-2′-Benzyloxy-7-chloro-4,6-dimethoxy-6′-methyl-3-oxo-3H-spiro[benzofuran-2,1′-cyclohex[2′]en]-4′-ylidene)hydrazine-1-carboximidamide]: the IC50 is 14.5 µM in data set [1] and 8.39 µM in data set [2]. Also, in data set [2], the “increase in activity over 5-fluorouracil against HCT116” value was determined as 2 fold. The results for the solubility at 24 h in data set [3] (setting [8]) and in data set [3] (setting [9]) were 26.7 ± 0.57 µg/mL (≈ 55 µM) and 16.6 ± 0.58 µg/mL (≈ 34.2 µM), respectively.
